Assay results as given in PubChem BioAssay AID2060892 (Molecular Pharmacology Branch, DTP, NCI, 2025).

Test system: HOP-62 complex spheroids with HUVEC/MSC, viability
Experiment: Anticancer human tumor HOP-62 cell line growth inhibition [RAS];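 also: spheroids exposed to agents for seven days before readout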;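 as to viability, T/C: 100% = DMSO vehicle control viability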
Conditions: for IC50: curve of first compound; for viability, T/C: stronger effect = lower value
How it was run: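 Agents were tested in combination matrices in half-log decrements from a top concentration at or near clinical Cmax (10 microM if undetermined). Targets were multi-cell spheroids of tumour lines plus HUVEC and MSC stromal cells.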

## CC1(C)CCC(Nc2ncc(C(F)(F)F)c(-c3c[nH]c4c(P(C)(C)=O)c(C#N)ccc34)n2)CN1 (configuration not stated) + CCn1c(-c2cc(N3CCN(C)CC3)cnc2C(C)OC)c2c3cc(ccc31)-c1csc(n1)CC(NC(=O)C1CC1C)C(=O)N1CCCC(N1)C(=O)OCC(C)(C)C2
Second compound 0.000949 µM
  IC50: > 300 nM
Second compound 0.003 µM
  IC50: 274 nM
Second compound 0.00949 µM
  IC50: > 300 nM
Second compound 0.03 µM
  IC50: > 300 nM
Second compound 0.0949 µM
  IC50: > 300 nM
Second compound 0.3 µM
  IC50: < 0.949 nM
Second compound 0.000949 µM, first compound 0.000949 µM
  viability, T/C: 106%
Second compound 0.000949 µM, first compound 0.003 µM
  viability, T/C: 95.9%
Second compound 0.000949 µM, first compound 0.00949 µM
  viability, T/C: 54.9%
Second compound 0.000949 µM, first compound 0.03 µM
  viability, T/C: 71.5%
Second compound 0.000949 µM, first compound 0.0949 µM
  viability, T/C: 76.7%
Second compound 0.000949 µM, first compound 0.3 µM
  viability, T/C: 38.8%
Second compound 0.003 µM, first compound 0.000949 µM
  viability, T/C: 83%
Second compound 0.003 µM, first compound 0.003 µM
  viability, T/C: 73%
Second compound 0.003 µM, first compound 0.00949 µM
  viability, T/C: 61.9%
Second compound 0.003 µM, first compound 0.03 µM
  viability, T/C: 74%
Second compound 0.003 µM, first compound 0.0949 µM
  viability, T/C: 79.7%
Second compound 0.003 µM, first compound 0.3 µM
  viability, T/C: 48%
Second compound 0.00949 µM, first compound 0.000949 µM
  viability, T/C: 68.3%
Second compound 0.00949 µM, first compound 0.003 µM
  viability, T/C: 52.8%
Second compound 0.00949 µM, first compound 0.00949 µM
  viability, T/C: 67.2%
Second compound 0.00949 µM, first compound 0.03 µM
  viability, T/C: 68.7%
Second compound 0.00949 µM, first compound 0.0949 µM
  viability, T/C: 67.8%
Second compound 0.00949 µM, first compound 0.3 µM
  viability, T/C: 54.1%
Second compound 0.03 µM, first compound 0.000949 µM
  viability, T/C: 50.9%
Second compound 0.03 µM, first compound 0.003 µM
  viability, T/C: 56.4%
Second compound 0.03 µM, first compound 0.00949 µM
  viability, T/C: 72.1%
Second compound 0.03 µM, first compound 0.03 µM
  viability, T/C: 74.3%
Second compound 0.03 µM, first compound 0.0949 µM
  viability, T/C: 51.6%
Second compound 0.03 µM, first compound 0.3 µM
  viability, T/C: 66%
Second compound 0.0949 µM, first compound 0.000949 µM
  viability, T/C: 49.5%
Second compound 0.0949 µM, first compound 0.003 µM
  viability, T/C: 59%
Second compound 0.0949 µM, first compound 0.00949 µM
  viability, T/C: 64.4%
Second compound 0.0949 µM, first compound 0.03 µM
  viability, T/C: 66.1%
Second compound 0.0949 µM, first compound 0.0949 µM
  viability, T/C: 51.4%
Second compound 0.0949 µM, first compound 0.3 µM
  viability, T/C: 70.2%
Second compound 0.3 µM, first compound 0.000949 µM
  viability, T/C: 43.8%
Second compound 0.3 µM, first compound 0.003 µM
  viability, T/C: 59.2%
Second compound 0.3 µM, first compound 0.00949 µM
  viability, T/C: 70.8%
Second compound 0.3 µM, first compound 0.03 µM
  viability, T/C: 56.9%
Second compound 0.3 µM, first compound 0.0949 µM
  viability, T/C: 66.1%
Second compound 0.3 µM, first compound 0.3 µM
  viability, T/C: 70.7%
